In US8829011B2 (Janssen Pharmaceutica NV, priority 2008, dated 2014):
Structures can show the parent of a compound that is named as a salt.

How the values were obtained:
[1] = biological target: T1, rat 5-HT7a receptor (Rattus norvegicus, UniProt P32305); experiment: Affinity for 5-HT7 receptor binding sites (competition radioligand binding, [3H]5-CT); settings: membranes of HEK-293 cells with rat 5-HT7a; 1 nM [3H]5-CT; * = tested as hydrochloride salt
T1 construct: expressed in transfected cells; host or cells: HEK-293
T1 sequence (P32305 whole entry): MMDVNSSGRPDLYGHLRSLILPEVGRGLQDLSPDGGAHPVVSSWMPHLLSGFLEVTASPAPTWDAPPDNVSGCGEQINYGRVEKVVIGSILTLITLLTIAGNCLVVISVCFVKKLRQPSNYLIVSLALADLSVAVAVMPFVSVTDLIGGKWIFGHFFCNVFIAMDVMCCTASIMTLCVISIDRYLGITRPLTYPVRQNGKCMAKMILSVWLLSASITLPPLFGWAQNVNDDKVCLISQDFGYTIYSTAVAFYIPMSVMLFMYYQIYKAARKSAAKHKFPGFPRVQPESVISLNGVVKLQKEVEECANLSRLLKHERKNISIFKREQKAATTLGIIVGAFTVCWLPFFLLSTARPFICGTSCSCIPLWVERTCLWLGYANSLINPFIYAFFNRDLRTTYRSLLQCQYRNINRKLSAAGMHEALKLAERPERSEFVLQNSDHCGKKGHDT
Procedure: (§1) Stock drug solutions (10 mM) were prepared in DMSO (the final assay concentration of DMSO not exceeding 0.4%). Drug dilutions were prepared in assay buffer.
(§2) Sigmoidal inhibition curves were generated and fitted by nonlinear regression analysis (GraphPad Prism).
1. Affinity for 5-HT7 Receptor Binding Sites
The affinity of the compounds described in this invention for the 5-HT7 receptor binding site was evaluated by single competition radioligand binding assay. The assay was performed on membranes prepared from HEK-293 cells that had been subjected to stable transfection with the rat 5-HT7a receptor (GB: NM022938). Cells were scraped from the culture plates, suspended in Tris-HCl 50 mM pH 7.5 and collected through centrifugation (1000 rpm for 5 min). The cell pellets were homogenized (Polytron, 15 s, setting 5) in 50 mM Tris-HCl (pH 7.5), 5 mM EDTA. Following centrifugation (15,000 rpm for 25 min), membranes (135 μg protein/mL) were resuspended in the same buffer and incubated for 60 min at RT with 1 nM [^3H]5-CT in the presence of increasing concentration of test compounds. Nonspecific binding was defined in the presence of 10 μM 5-HT. Incubation was stopped by rapid filtration using the cell harvester (Packard). Radioactivity was counted in a TopCount-NXT (Packard). Experiments were conducted in triplicate.

[2] = biological target: T2, human recombinant 5-HT2B receptor (Homo sapiens, UniProt P41595); experiment: Affinity for 5-HT2B receptor binding sites (competitive radioligand binding, [3H]mesulergine); settings: membranes of CHO with h5-HT2B, * = tested as hydrochloride salt
T2 construct: expressed in transfected cells; host or cells: CHO
T2 sequence (P41595 whole entry): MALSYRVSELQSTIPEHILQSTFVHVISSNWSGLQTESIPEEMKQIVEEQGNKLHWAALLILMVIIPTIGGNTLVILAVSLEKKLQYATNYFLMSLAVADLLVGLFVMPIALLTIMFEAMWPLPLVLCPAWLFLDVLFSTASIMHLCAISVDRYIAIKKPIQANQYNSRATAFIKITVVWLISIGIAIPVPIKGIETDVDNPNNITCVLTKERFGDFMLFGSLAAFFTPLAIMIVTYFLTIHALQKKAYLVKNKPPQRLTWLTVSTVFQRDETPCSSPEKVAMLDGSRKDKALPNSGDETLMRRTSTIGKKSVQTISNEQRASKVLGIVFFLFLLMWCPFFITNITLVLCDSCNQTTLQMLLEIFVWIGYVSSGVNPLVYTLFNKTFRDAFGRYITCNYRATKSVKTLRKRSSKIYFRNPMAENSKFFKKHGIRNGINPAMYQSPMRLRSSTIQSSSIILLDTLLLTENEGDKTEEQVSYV
Procedure: as §1, §2
(§3) 2. Affinity for 5HT2 Receptor Binding Sites
(§4) Receptor binding was performed using the human recombinant 5-HT2A (GB: X57830), 5-HT2B (GB: Z36748) and 5-HT2C (GB: M81778) receptors. The affinity of the compounds for the 3 different human 5-HT2 receptor subtypes was evaluated by competitive radioligand binding assays using [^3H]ketanserin (h5-HT2A) or [^3H]mesulergine (h5-HT2B and h5-HT2C). The assays were performed on membranes prepared from NIH3T3 stably transfected with h5-HT2A or CHO stably transfected with h5-HT2B and h5-HT2C.

[3] = biological target: T3, human recombinant 5-HT2A receptor (Homo sapiens, UniProt P28223); experiment: Affinity for 5-HT2A receptor binding sites (competitive radioligand binding, [3H]ketanserin); settings: membranes of NIH3T3 with h5-HT2A, * = tested as hydrochloride salt
T3 construct: expressed in transfected cells; host or cells: NIH3T3
T3 sequence (P28223 whole entry): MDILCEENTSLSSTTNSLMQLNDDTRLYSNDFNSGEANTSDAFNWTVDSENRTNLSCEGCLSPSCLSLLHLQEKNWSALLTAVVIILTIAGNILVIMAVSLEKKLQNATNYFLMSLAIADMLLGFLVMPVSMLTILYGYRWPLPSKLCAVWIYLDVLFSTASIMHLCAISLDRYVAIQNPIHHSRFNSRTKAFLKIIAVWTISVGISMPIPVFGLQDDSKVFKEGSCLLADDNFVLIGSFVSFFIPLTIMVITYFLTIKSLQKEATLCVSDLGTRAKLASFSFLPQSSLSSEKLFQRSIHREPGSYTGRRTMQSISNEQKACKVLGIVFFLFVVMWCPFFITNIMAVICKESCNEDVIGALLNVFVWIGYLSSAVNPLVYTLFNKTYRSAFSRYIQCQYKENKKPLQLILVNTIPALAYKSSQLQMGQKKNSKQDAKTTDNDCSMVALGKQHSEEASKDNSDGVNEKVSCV
Procedure: as §1, §2, §3, §4

[4] = biological target: T4, human recombinant 5-HT6 receptor (Homo sapiens, UniProt P50406); experiment: Affinity for 5-HT6 receptor binding sites (competitive radioligand binding, [3H]LSD); settings: membranes of HEK-293 with h5-HT6, * = tested as hydrochloride salt
T4 construct: expressed in transfected cells; host or cells: HEK-293
T4 sequence (P50406 whole entry): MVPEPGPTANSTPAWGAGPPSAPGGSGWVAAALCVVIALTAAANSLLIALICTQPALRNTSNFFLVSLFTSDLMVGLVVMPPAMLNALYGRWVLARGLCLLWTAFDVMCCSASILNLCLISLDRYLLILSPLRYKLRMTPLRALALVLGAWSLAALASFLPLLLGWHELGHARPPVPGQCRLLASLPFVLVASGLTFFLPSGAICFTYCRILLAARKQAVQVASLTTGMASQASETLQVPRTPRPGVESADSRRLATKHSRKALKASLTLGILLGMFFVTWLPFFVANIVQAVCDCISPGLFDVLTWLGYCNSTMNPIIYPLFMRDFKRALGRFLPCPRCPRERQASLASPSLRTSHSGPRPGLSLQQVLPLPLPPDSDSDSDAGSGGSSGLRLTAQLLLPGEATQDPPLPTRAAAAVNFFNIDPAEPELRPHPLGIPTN
Procedure: as §1, §2
3. Affinity for 5-HT6 Receptor Binding Sites
Receptor binding was performed using the human recombinant 5-HT6 (GB: BC0794995) receptor. The affinity of the compounds for the human 5-HT6 receptor was evaluated by competitive radioligand binding assays using [^3H]LSD. The assays were performed on membranes prepared from HEK-293 stably transfected with h5-HT6. Non-specific binding was estimated in the presence of 1 μM clozapine.

[5] = biological target: T5, human recombinant 5-HT2C receptor (Homo sapiens, UniProt P28335); experiment: Affinity for 5-HT2C receptor binding sites (competitive radioligand binding, [3H]mesulergine); settings: membranes of CHO with h5-HT2C, * = tested as hydrochloride salt
T5 construct: expressed in transfected cells; host or cells: CHO
T5 sequence (P28335 33-458): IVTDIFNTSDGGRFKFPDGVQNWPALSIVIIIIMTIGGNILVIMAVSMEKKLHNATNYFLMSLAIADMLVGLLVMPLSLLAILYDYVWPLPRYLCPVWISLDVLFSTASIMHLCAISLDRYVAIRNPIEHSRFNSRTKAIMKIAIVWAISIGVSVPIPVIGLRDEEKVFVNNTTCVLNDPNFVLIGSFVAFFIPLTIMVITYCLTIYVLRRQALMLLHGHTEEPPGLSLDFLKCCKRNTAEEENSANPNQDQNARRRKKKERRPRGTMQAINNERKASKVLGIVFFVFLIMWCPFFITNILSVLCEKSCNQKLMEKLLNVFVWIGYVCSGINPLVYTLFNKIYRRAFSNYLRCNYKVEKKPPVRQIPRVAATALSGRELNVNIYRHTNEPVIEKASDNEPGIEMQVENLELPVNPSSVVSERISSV
Procedure: as §1, §2, §3, §4

Compound	Ki [1] [nM]	Ki [2] [nM]	Ki [3] [nM]	Ki [4] [nM]	Ki [5] [nM]
CCN(CC)c1nc2c(c(-c3ccc(F)cc3)n1)CCCNC2 [Example 1, Diethyl-[4-(4-fluoro-phenyl)-6,7,8,9-tetrahydro-5H-pyrimido[4,5-c]azepin-2-yl]-amine]	470	32	20	2260	300
CCN(CC)c1nc2c(c(-c3ccc(C)cc3)n1)CCCNC2 [Example 2]	220	25	170	300	430
CCN(CC)c1nc2c(c(-c3ccc(OC)cc3)n1)CNCCC2 [Example 17, Diethyl-[4-(4-methoxy-phenyl)-6,7,8,9-tetrahydro-5H-1,3,6-triaza-benzocyclohepten-2-yl]-amine]	> 10000	630	900	–	2500
Cc1ccc(-c2nc(N3CCCCC3)nc3c2CNCCC3)cc1 [Example 19, 2-Piperidin-1-yl-4-p-tolyl-6,7,8,9-tetrahydro-5H-1,3,6-triaza-benzocycloheptene]	> 10000	1000	1500	–	3160
Fc1ccc(-c2nc(N3CCCCC3)nc3c2CNCCC3)cc1 [Example 20, 4-(4-Fluoro-phenyl)-2-piperidin-1-yl-6,7,8,9-tetrahydro-5H-1,3,6-triaza-benzocycloheptene hydrochloride]	> 10000	790	300	–	6310
N#Cc1ccc(-c2nc(N3CCCCC3)nc3c2CNCCC3)cc1 [Example 22, 4-(2-Piperidin-1-yl-6,7,8,9-tetrahydro-5H-1,3,6-triaza-benzocyclohepten-4-yl)-benzonitrile hydrochloride]	> 10000	2510	> 10000	–	> 10000
CCN(CC)c1nc2c(c(-c3ccc(F)cc3)n1)CCN(Cc1ccccc1)C2 [Example 23, [7-Benzyl-4-(4-fluoro-phenyl)-5,6,7,8-tetrahydro-pyrido[3,4-d]pyrimidin-2-yl]-diethyl-amine]	620	350	60	–	2800
CCN(CC)c1nc2c(c(-c3ccc(C)cc3)n1)CCN(Cc1ccccc1)C2 [Example 25, (7-Benzyl-4-p-tolyl-5,6,7,8-tetrahydro-pyrido[3,4-d]pyrimidin-2-yl)-diethyl-amine]	> 10000	620	190	–	> 10000
CCN(CC)c1nc2c(c(-c3ccc(OC)cc3)n1)CCN(Cc1ccccc1)C2 [Example 27, [7-Benzyl-4-(4-methoxy-phenyl)-5,6,7,8-tetrahydro-pyrido[3,4-d]pyrimidin-2-yl]-diethyl-amine]	> 10000	660	1700	–	> 10000
CCN(CC)c1nc2c(c(-c3ccc(C#N)cc3)n1)CCN(Cc1ccccc1)C2 [Example 29, 4-(7-Benzyl-2-diethylamino-5,6,7,8-tetrahydro-pyrido[3,4-d]pyrimidin-4-yl)-benzonitrile]	> 10000	1100	650	–	> 10000
Fc1ccc(-c2nc(N3CCCCCC3)nc3c2CCN(Cc2ccccc2)C3)cc1 [Example 31, 2-Azepan-1-yl-7-benzyl-4-(4-fluoro-phenyl)-5,6,7,8-tetrahydro-pyrido[3,4-d]pyrimidine]	> 10000	1600	230	–	3200
Fc1ccc(-c2nc(N3CCCCCC3)nc3c2CCNC3)cc1 [Example 32, 2-Azepan-1-yl-4-(4-fluoro-phenyl)-5,6,7,8-tetrahydro-pyrido[3,4-d]pyrimidine]	270	30	9	–	110
Cc1ccc(-c2nc(N3CCCCCC3)nc3c2CCN(Cc2ccccc2)C3)cc1 [Example 33, 2-Azepan-1-yl-7-benzyl-4-p-tolyl-5,6,7,8-tetrahydro-pyrido[3,4-d]pyrimidine]	> 10000	800	540	–	3200
Cc1ccc(-c2nc(N3CCCCCC3)nc3c2CCNC3)cc1 [Example 34, 2-Azepan-1-yl-4-p-tolyl-5,6,7,8-tetrahydro-pyrido[3,4-d]pyrimidine]	90	40	18	–	270
COc1ccc(-c2nc(N3CCCCCC3)nc3c2CCN(Cc2ccccc2)C3)cc1 [Example 35, 2-Azepan-1-yl-7-benzyl-4-(4-methoxy-phenyl)-5,6,7,8-tetrahydro-pyrido[3,4-d]pyrimidine]	> 10000	700	> 10000	–	> 10000
COc1ccc(-c2nc(N3CCCCCC3)nc3c2CCNC3)cc1 [Example 36, 2-Azepan-1-yl-4-(4-methoxy-phenyl)-5,6,7,8-tetrahydro-pyrido[3,4-d]pyrimidine]	210	100	160	–	320
N#Cc1ccc(-c2nc(N3CCCCCC3)nc3c2CCN(Cc2ccccc2)C3)cc1 [Example 37, 4-(2-Azepan-1-yl-7-benzyl-5,6,7,8-tetrahydro-pyrido[3,4-d]pyrimidin-4-yl)-benzonitrile]	> 10000	1300	2400	–	> 10000
Fc1ccc(-c2nc(N3CCCC3)nc3c2CNCC3)cc1 [Example 41, 4-(4-Fluoro-phenyl)-2-pyrrolidin-1-yl-5,6,7,8-tetrahydro-pyrido[4,3-d]pyrimidine hydrochloride]	> 10000	750	25	–	940
CCN(C)c1nc2c(c(-c3ccc(F)cc3)n1)CNCC2 [Example 44, Ethyl-[4-(4-fluoro-phenyl)-5,6,7,8-tetrahydro-pyrido[4,3-d]pyrimidin-2-yl]-methyl-amine hydrochloride]	2000	180	9.5	–	300
CCN(CC)c1nc2c(c(-c3ccc(Cl)cc3)n1)CNCC2 [Example 46, [4-(4-Chloro-phenyl)-5,6,7,8-tetrahydro-pyrido[4,3-d]pyrimidin-2-yl]-diethyl-amine hydrochloride]	100	200	30	–	250
Cc1ccc(-c2nc(N3CCCC3)nc3c2CNCC3)cc1 [Example 47, 2-Pyrrolidin-1-yl-4-p-tolyl-5,6,7,8-tetrahydro-pyrido[4,3-d]pyrimidine]	> 10000	500	120	–	1600
CC1CCCN1c1nc2c(c(-c3ccc(Cl)cc3)n1)CCNCC2 (stereo not drawn) [Example 54, 4-(4-Chloro-phenyl)-2-(2-methyl-pyrrolidin-1-yl)-6,7,8,9-tetrahydro-5H-pyrimido[4,5-d]azepine]	370	5	30	–	89
Clc1ccc(-c2nc(NCc3ccccc3)nc3c2CCNCC3)cc1 [Example 56, Benzyl-[4-(4-chloro-phenyl)-6,7,8,9-tetrahydro-5H-pyrimido[4,5-d]azepin-2-yl]-amine]	9000	45	1.4	–	40
CCN(CC)c1nc2c(c(-c3ccc(Cl)cc3)n1)CNCCC2 [Example 59, [4-(4-Chloro-phenyl)-6,7,8,9-tetrahydro-5H-1,3,6-triaza-benzocyclohepten-2-yl]-diethyl-amine hydrochloride]	> 10000	–	–	1480	–
